Assay results from patent US10525046B2 (ACADIA Pharmaceuticals Inc., priority 2003, dated 2020).

Experiments:
[1] = target: T1, human D2 receptors (Homo sapiens, UniProt P14416); experiment: cell-based
[2] = refractory schizophrenic patients; cited from earlier work
[3] = target: human 5HT2A receptors (Homo sapiens, UniProt P28223)
[4] = target: T1, human D2 receptors; details: R-SAT agonist; short form of the D2 receptor; +/− standard deviation of three to eight determinations
[5] = tested on: remaining monoaminergic receptor subtypes; experiment: Intrinsic activity at remaining monoaminergic receptor subtypes
[6] = tested on: hyperactivity induced by d-amphetamine; experiment: Amphetamine induced hyperactivity; assay type: in vivo; details: mice
[7] = tested on: spontaneous locomotion; experiment: Spontaneous locomotion; assay type: in vivo; details: s.c.; rats (FIG. 2A)
From the text: (§1) . In FIG. 2A and 2B, asterisks indicate statistical significance (p<0.05) compared to respective vehicle control. […]

[8] = tested on: hyperactivity induced by MK-801 (dizocilpine); experiment: MK-801 induced hyperactivity; assay type: in vivo, rats
From the text: as §1

[9] = tested on: levodopa-associated dyskinesias and motor response fluctuations; experiment: Double blind, placebo controlled study in parkinsonian patients; assay type: in vivo; details: Patient Group II
Description: […]. […] […]. The compound of formula (I) is administered once daily for four weeks, with the dose escalating once each week. Assessments are made on the first day of each dose escalation.
The study is conducted on an […].
Patients who participate in the study have particular characteristics. The patients are between 30 and 80 years of age, inclusively. The patients had been diagnosed with idiopathic Parkinson's disease based on the presence of a characteristic clinical history and neurological findings.
The sample size is calculated for the primary endpoint: the Unified Parkinson's Disease Rating Scale (UPDRS) part III motor examination. […]. […] In this phase 2 study we will accept a two-sided alpha at a 0.05 significance level. Four patients will be added for the placebo group, totaling 21 subjects enrolled in the study.
Patients enter the levodopa infusion optimal rate determination (dose finding) portion of the study as soon as all prohibited medication has been withdrawn for at least four weeks.
Intravenous infusion of levodopa is conducted in an in-patient ward. […]. During the first and second days of optimal rate determination, two baseline UPDRS ratings are performed prior to levodopa infusion. […] Dyskinesia severity is similar to that experienced with each patient's usual therapeutic regimen. Levodopa will be administered by means of an indwelling intravenous catheter. The initial infusion rate of levodopa will not exceed 80 mg/hr.
Levodopa infusions will ordinarily last up to 8 hours, but may be continued uninterrupted for several days or be repeated on other days to obtain reliable assessment of motor function. The peripheral decarboxylase inhibitor carbidopa (50 mg, given every 3 hours) is administered orally starting at least one hour prior to intravenous administration of levodopa and continuing until levodopa effects have worn off. […]
Throughout the study, patients are evaluated weekly for drug safety and tolerability during their inpatient admission and two weeks after treatment for an outpatient follow-up visit. […]

[10] = tested on: L-dopa induced dyskinesias; experiment: L-dopa induced dyskinesia in MPTP monkeys; details: s.c.; MPTP dyskinetic primates; dyskinetic movements scored as percentage of placebo (FIG. 3)
From the text: The use of 1-methyl-4-phenyl-1,2,3,6-tetrahydropyrilidine (MPTP) to induce parkinsonism in monkeys, coupled with prolonged administration of L-dopa induces severe dyskinesias.

T1 sequence (P14416 1-414 isoform P14416-2): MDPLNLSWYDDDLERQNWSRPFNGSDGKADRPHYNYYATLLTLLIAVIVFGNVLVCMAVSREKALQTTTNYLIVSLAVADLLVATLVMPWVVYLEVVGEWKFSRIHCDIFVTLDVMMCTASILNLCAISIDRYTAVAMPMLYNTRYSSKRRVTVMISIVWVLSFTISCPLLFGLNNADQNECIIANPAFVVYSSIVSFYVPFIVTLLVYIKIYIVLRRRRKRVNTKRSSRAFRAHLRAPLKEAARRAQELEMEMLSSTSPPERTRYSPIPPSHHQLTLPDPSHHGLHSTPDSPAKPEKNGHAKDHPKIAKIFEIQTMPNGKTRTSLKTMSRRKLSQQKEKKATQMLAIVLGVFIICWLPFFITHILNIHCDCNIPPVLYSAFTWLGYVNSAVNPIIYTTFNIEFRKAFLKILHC
human 5HT2A receptors, sequence (P28223 whole entry): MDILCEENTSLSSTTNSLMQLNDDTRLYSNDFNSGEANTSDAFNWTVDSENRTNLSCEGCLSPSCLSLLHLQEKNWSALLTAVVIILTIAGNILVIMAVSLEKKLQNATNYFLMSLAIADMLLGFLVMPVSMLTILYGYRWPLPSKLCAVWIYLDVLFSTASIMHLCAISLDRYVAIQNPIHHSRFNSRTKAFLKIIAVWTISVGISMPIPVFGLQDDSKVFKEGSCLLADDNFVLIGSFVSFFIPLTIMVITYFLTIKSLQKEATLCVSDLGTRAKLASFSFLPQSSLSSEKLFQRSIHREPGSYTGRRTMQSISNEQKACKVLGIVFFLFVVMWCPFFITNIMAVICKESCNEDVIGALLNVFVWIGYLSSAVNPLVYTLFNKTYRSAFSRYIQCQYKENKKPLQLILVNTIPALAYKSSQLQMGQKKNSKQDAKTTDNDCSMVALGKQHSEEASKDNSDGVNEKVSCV

Work on CC(C)C[C@H]1C(=O)N2CCC[C@H]2[C@]2(O)O[C@](NC(=O)[C@@H]3C=C4c5cccc6[nH]c(Br)c(c56)C[C@H]4N(C)C3)(C(C)C)C(=O)N12 [Bromocriptine] yielded an EC50 [1] of 0.43 nM.
For CN1CCN(C2=Nc3cc(Cl)ccc3Nc3ccccc32)CC1 [Clozapine], the “average serum levels associated with therapeutic response” value [2] is listed as ≥ 250 ng/mL.
For NCCc1ccc(O)c(O)c1 [Dopamine], the “Potency against serotonin 5-HT2A receptor (FIG. 1B)” value ([3]; R-SAT agonist, reference full agonist serotonin) was “no response”.
In the case of CCCN(CCC)CCc1cccc2c1CC(=O)N2 [Ropinirole], the “Dopamine D2, —Log (EC50)” value [4] is reported as 8.19 +/− 0.58 and the “Serotonin 2A, —Log (EC50)” value [3] is reported as 6.85 +/− 0.77.
In the case of CC(C)COc1ccc(CNC(=O)N(Cc2ccc(F)cc2)C2CCN(C)CC2)cc1 [compound of formula (I), N-(1-methylpiperidin-4-yl)-N-(4-flourophenylmethyl)-N′-(4-(2-methylpropyloxy)phenylmethyl)carbamide], the “intrinsic activity at remaining monoaminergic receptor subtypes” value [5] is reported as “lacks intrinsic activity”, the “effect on amphetamine hyperactivity, administered alone” value ([6]; 10.0 mg/kg P.O. and below, 3.0 mg/kg I.P. d-amphetamine) is reported as “did not reduce hyperactivity” and the “amphetamine hyperactivity with the combination” value ([6]; 10.0 mg/kg P.O. compound of formula (I) combined with s.c. haloperidol) is reported as “completely reversed”. For the same compound, the “doses reducing spontaneous locomotion” value [7] was ≥ 3 mg/kg, the “effect on MK-801 hyperactivity” value ([8]; i.p. administration, 1 mg/kg) was “attenuated MK-801 hyperactivity” and the “minimum effective dose attenuating MK-801 hyperactivity” value ([8]; p.o., rats (FIG. 2B)) was 10 mg/kg. For the same compound, the “minimum effective dose attenuating MK-801 hyperactivity” value ([8]; s.c., rats (FIG. 2A)) was 1 mg/kg, the “effect on the beneficial effects of levodopa on parkinsonian symptoms” value ([9]; oral) was “potentiates the benefical effects of levodopa on parkinsonian symptoms” and the “levodopa-associated dyskinesias and motor response fluctuations” value ([9]; oral once daily, 30 to 300 mg escalating weekly) was “show a reducing in levodopa-associated dyskinesias and motor response fluctuations”. For the same compound, the tolerability ([9]; oral, 30 to 300 mg) was “tolerate the compound of formula (I) at all doses administered” and the “effect on L-dopa induced dyskinesias” value [10] was “significantly diminish L-dopa induced dyskinesias in a dose dependent manner”.
For O=C(CCCN1CCC(O)(c2ccc(Cl)cc2)CC1)c1ccc(F)cc1 [haloperidol, reference compound], the “minimally significant dose reducing amphetamine hyperactivity, in combination” value ([6]; haloperidol s.c. with 10.0 mg/kg P.O. compound of formula (I)) was 0.03 mg/kg and the “minimally significant dose reducing amphetamine hyperactivity, alone” value ([6]; s.c., 3.0 mg/kg I.P. d-amphetamine) was 0.1 mg/kg.
